In ChEMBL document CHEMBL1909294, “Translating clinical findings into knowledge in drug safety evaluation--drug induced liver injury prediction system (DILIps)” (PLoS Comput Biol, 2011):

Columns and labels:
[1] = system: Hepatotoxicity;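 for HepSE cholecystitis: Cholecystitis-related hepatic side effect score drawn from the DILIps (drug-induced liver injury prediction) training data set; call rule not given here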;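 for HepSE cirrhosis: cirrhosis hepatic side effect score taken from the DILIps (drug-induced liver injury prediction) training set; call rule not given here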;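 for HepSE elevated liver function tests: hepatic side effect score for raised liver function tests, as recorded in the DILIps training set used for predicting drug-induced liver injury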; for HepSE hepatic failure: call rule not given here;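 for HepSE hepatitis: Hepatitis-related hepatic side effect score taken from the training data of DILIps, a prediction system for drug-induced liver injury; call rule not given here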; for HepSE liver disease: call rule not given here;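 for HepSE liver fatty: hepatic side effect score for fatty liver, taken from the DILIps training set for predicting drug-induced liver injury; call rule not given here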
[2] = system: Hepatotoxicity; remark: listed apart in the source;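 for HepSE cholecystitis: Cholecystitis-related hepatic side effect score drawn from the DILIps (drug-induced liver injury prediction) training data set; call rule not given here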;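 for HepSE cirrhosis: cirrhosis hepatic side effect score taken from the DILIps (drug-induced liver injury prediction) training set; call rule not given here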;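 for HepSE elevated liver function tests: hepatic side effect score for raised liver function tests, as recorded in the DILIps training set used for predicting drug-induced liver injury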; for HepSE hepatic failure: call rule not given here;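 for HepSE hepatitis: Hepatitis-related hepatic side effect score taken from the training data of DILIps, a prediction system for drug-induced liver injury; call rule not given here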; for HepSE liver disease: call rule not given here;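 for HepSE liver fatty: hepatic side effect score for fatty liver, taken from the DILIps training set for predicting drug-induced liver injury; call rule not given here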
[3] = system: Hepatotoxicity; remark: listed apart in the source;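 for HepSE cholecystitis: Cholecystitis-related hepatic side effect score drawn from the DILIps (drug-induced liver injury prediction) training data set; call rule not given here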;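 for HepSE cirrhosis: cirrhosis hepatic side effect score taken from the DILIps (drug-induced liver injury prediction) training set; call rule not given here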;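 for HepSE elevated liver function tests: hepatic side effect score for raised liver function tests, as recorded in the DILIps training set used for predicting drug-induced liver injury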; for HepSE hepatic failure: call rule not given here;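 for HepSE hepatitis: Hepatitis-related hepatic side effect score taken from the training data of DILIps, a prediction system for drug-induced liver injury; call rule not given here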; for HepSE liver disease: call rule not given here;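 for HepSE liver fatty: hepatic side effect score for fatty liver, taken from the DILIps training set for predicting drug-induced liver injury; call rule not given here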
[4] = system: Hepatotoxicity; remark: listed apart in the source;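 for HepSE cholecystitis: Cholecystitis-related hepatic side effect score drawn from the DILIps (drug-induced liver injury prediction) training data set; call rule not given here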;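 for HepSE cirrhosis: cirrhosis hepatic side effect score taken from the DILIps (drug-induced liver injury prediction) training set; call rule not given here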;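 for HepSE elevated liver function tests: hepatic side effect score for raised liver function tests, as recorded in the DILIps training set used for predicting drug-induced liver injury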; for HepSE hepatic failure: call rule not given here;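 for HepSE hepatitis: Hepatitis-related hepatic side effect score taken from the training data of DILIps, a prediction system for drug-induced liver injury; call rule not given here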; for HepSE liver disease: call rule not given here;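 for HepSE liver fatty: hepatic side effect score for fatty liver, taken from the DILIps training set for predicting drug-induced liver injury; call rule not given here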
[5] = system: Hepatotoxicity; remark: listed apart in the source; for HepSE hepatic failure: call rule not given here; for HepSE liver disease: call rule not given here
[6] = system: Hepatotoxicity; remark: listed apart in the source; for HepSE hepatic failure: call rule not given here; for HepSE liver disease: call rule not given here
[7] = system: Hepatotoxicity; remark: listed apart in the source
[8] = system: Hepatotoxicity; remark: listed apart in the source
[9] = system: Hepatotoxicity; remark: listed apart in the source
[10] = system: Hepatotoxicity; remark: listed apart in the source
[11] = system: Hepatotoxicity; remark: listed apart in the source
[12] = system: Hepatotoxicity; remark: listed apart in the source
[13] = system: Hepatotoxicity; remark: listed apart in the source
[14] = system: Hepatotoxicity; remark: listed apart in the source

SMILES	HepSE_hepatitis [1]	HepSE_cirrhosis [2]	HepSE_liver disease [3]	HepSE_cholecystitis [4]	HepSE_hepatic failure [5]	HepSE_elevated liver function tests [6]	HepSE_liver fatty [7]	HepSE_cholelithiasis [8]	HepSE_liver function tests abnormal [9]	HepSE_hepatic necrosis [10]	HepSE_Combined Scores [11]	HepSE_jaundice [12]	HepSE_bilirubinemia [13]	HepSE_hepatomegaly [14]
CC(=O)N1CCN(c2ccc(OCC3COC(Cn4ccnc4)(c4ccc(Cl)cc4Cl)O3)cc2)CC1 (configuration not stated) [KETOCONAZOLE]	0	0	0	0	0	0	0	0	0	0	0	0	0	0
CC(C(=O)O)c1cccc(C(=O)c2ccccc2)c1 (configuration not stated) [KETOPROFEN]	1	0	0	0	0	0	0	0	0	0	2	1	0	0
O=C(c1ccccc1)c1ccc2n1CCC2C(=O)O (configuration not stated) [KETOROLAC]	1	0	0	0	1	0	0	0	0	0	3	1	0	0
CN1CCC(=C2c3ccccc3CC(=O)c3sccc32)CC1 [KETOTIFEN]	1	0	0	0	0	0	0	0	0	0	1	0	0	0
CC(CCc1ccccc1)NCC(O)c1ccc(O)c(C(N)=O)c1 (configuration not stated) [LABETALOL]	1	0	0	0	0	1	0	0	0	1	4	1	0	0
OC[C@H]1O[C@@H](O[C@@H]2[C@@H](CO)O[C@](O)(CO)[C@H]2O)[C@H](O)[C@@H](O)[C@H]1O [LACTULOSE]	0	0	0	0	0	0	0	0	0	0	0	0	0	0
Nc1ccn([C@@H]2CS[C@H](CO)O2)c(=O)n1 [LAMIVUDINE]	0	0	0	0	0	0	1	0	0	0	3	1	0	1
Nc1nnc(-c2cccc(Cl)c2Cl)c(N)n1 [LAMOTRIGINE]	1	0	0	0	0	0	0	0	1	0	3	0	1	0
CC(C)[C@@H]1NC(=O)[C@H](CCCCN)NC(=O)[C@@H](Cc2c[nH]c3ccccc23)NC(=O)[C@H](Cc2ccc(O)cc2)NC(=O)[C@@H](NC(=O)[C@H](N)Cc2ccc3ccccc3c2)CSSC[C@@H](C(=O)N[C@H](C(N)=O)[C@@H](C)O)NC1=O [LANREOTIDE]	0	0	0	1	0	0	0	1	0	0	4	0	1	1
Cc1c(OCC(F)(F)F)ccnc1C[S+]([O-])c1nc2ccccc2[nH]1 (configuration not stated) [LANSOPRAZOLE]	0	0	0	0	0	0	0	1	1	0	4	1	1	0
CC(C)OC(=O)CCC/C=C\C[C@@H]1[C@@H](CC[C@@H](O)CCc2ccccc2)[C@H](O)C[C@@H]1O [LATANOPROST]	0	0	0	0	0	0	0	0	0	0	0	0	0	0
Cc1oncc1C(=O)Nc1ccc(C(F)(F)F)cc1 [LEFLUNOMIDE]	1	0	1	0	1	0	0	1	1	1	7	1	0	0
Nc1cccc2c1CN(C1CCC(=O)NC1=O)C2=O (configuration not stated) [LENALIDOMIDE]	0	0	0	1	1	0	0	0	1	0	4	0	1	0
